Positions of bridges follow the written chain, without caps; N, C: chain ends. Non-standard residues stand in square brackets, D forms with d. Residues, ends and D or L forms follow the SMILES beside them. *: point of attachment. X2 = O=C(c1ccccc1)c1ccc(OCCCC(=O)*)cc1; X1 = O=C(CCCOc1ccc(Cc2ccccc2)cc1)*; NMeF = CN[C@@H](Cc1ccccc1)C(=O)O; NMeL = CN[C@@H](CC(C)C)C(=O)O; NMeS = CN[C@@H](CO)C(=O)O; Abu = CC[C@H](N)C(=O)O; Dap = NC[C@H](N)C(=O)O; Ava = NCCCCC(=O)O; Mpa = O=C(O)CCS
Assays:
Staphylococcus aureus = experiment: Inhibition of Staphylococcus aureus AgrC1-mediated RNA3 promoter activation at 12 uM
[1] = Inhibition of Staphylococcus aureus AgrC1-mediated RNA3 promoter activation
[2] = Inhibition of Staphylococcus aureus AgrC3
[3] = Inhibition of Staphylococcus aureus AgrC1
[4] = Inhibition of Staphylococcus aureus AgrC2
[5] = Activation of Staphylococcus aureus AgrC4
[6] = Activation of Staphylococcus aureus AgrC1
[7] = Inhibition of Staphylococcus aureus AgrC4

IC50 [2] [nM]	IC50 [3] [nM]	IC50 [4] [nM]	Compound	also measured
	1390	167000	CC(=O)N[C@H]1CNC(=O)[C@H](Cc2ccccc2)NC(=O)[C@H](CC(C)C)NC(=O)[C@H](CO)NC(=O)[C@H](CO)NC1=O (Ac-[Dap]SSLF; lactam 1-C)	
	40	194	CC(=O)N[C@H]1CSC(=O)[C@H](Cc2ccccc2)NC(=O)[C@H](CC(C)C)NC(=O)CNC(=O)[C@H](CO)NC1=O (Ac-CSGLF; thioester 1-C)	
	295	19	CC[C@H](C)[C@@H]1NC(=O)[C@H](Cc2ccccc2)NC(=O)[C@H](C)NC(=O)[C@@H](NC(=O)[C@@H](NC(=O)[C@H](CO)NC(=O)CCCOc2ccc(Cc3ccccc3)cc2)[C@@H](C)O)CSC(=O)[C@H](CCSC)NC1=O (X1-STCAFIM; thioester 3-C)	
240		47	CC[C@H](C)[C@@H]1NC(=O)[C@H](Cc2ccccc2)NC(=O)[C@H](CC(=O)O)NC(=O)[C@@H](NC(C)=O)CSC(=O)[C@H](CCSC)NC1=O (Ac-CDFIM; thioester 1-C)	EC50 [6]: 5800 nM
	> 30000	> 30000	CC(=O)N[C@H]1CSC(=O)[C@H](Cc2ccccc2)N(C)C(=O)[C@H](CC(C)C)NC(=O)[C@H](CO)NC(=O)[C@H](CO)NC1=O (Ac-CSSL[NMeF]; thioester 1-C)	
	77	238	CC(=O)N[C@H]1CSC(=O)[C@H](Cc2ccccc2)NC(=O)[C@H](CC(C)C)NC(=O)CNC(=O)CNC1=O (Ac-CGGLF; thioester 1-C)	
4	260	230	CC(=O)N[C@H]1CSC(=O)[C@H](Cc2ccccc2)NC(=O)[C@H](CC(C)C)NC(=O)[C@H](CO)NC(=O)[C@H](CO)NC1=O (Ac-CSSLF; thioester 1-C)	IC50 [7]: 150 nM
	319	1050	CC(=O)N[C@H]1CSC(=O)[C@H](Cc2ccccc2)NC(=O)[C@H](CC(C)C)NC(=O)[C@H](CO)N(C)C(=O)[C@H](CO)NC1=O (Ac-CS[NMeS]LF; thioester 1-C)	
10	930	8	CC[C@H](C)[C@@H]1NC(=O)[C@H](Cc2ccccc2)NC(=O)[C@H](Cc2ccc(O)cc2)NC(=O)[C@@H](NC(C)=O)CSC(=O)[C@H](CCSC)NC1=O (Ac-CYFIM; thioester 1-C)	IC50 [7]: 4100 nM
	639	7880	CC(=O)N[C@H]1CSC(=O)[C@H](Cc2ccccc2)NC(=O)[C@H](CC(C)C)NC(=O)[C@H](CO)NC(=O)[C@H](CO)N(C)C1=O (Ac-C[NMeS]SLF; thioester 1-C)	
0.1	5	5	CC[C@H](C)[C@@H]1NC(=O)[C@H](Cc2ccccc2)NC(=O)[C@H](C)NC(=O)[C@@H](NC(C)=O)CSC(=O)[C@H](CCSC)NC1=O (Ac-CAFIM; thioester 1-C)	IC50 [7]: 5 nM
	> 30000	> 30000	CC(=O)N[C@H]1CSC(=O)[C@H](Cc2ccccc2)NC(=O)[C@H](CC(C)C)N(C)C(=O)[C@H](CO)NC(=O)[C@H](CO)NC1=O (Ac-CSS[NMeL]F; thioester 1-C)	
	303	18	CC[C@H](C)[C@@H]1NC(=O)[C@H](Cc2ccccc2)NC(=O)[C@H](C)NC(=O)[C@@H](NC(=O)[C@@H](NC(=O)[C@H](CO)NC(=O)CCCOc2ccc(C(=O)c3ccccc3)cc2)[C@@H](C)O)CSC(=O)[C@H](CCSC)NC1=O (X2-STCAFIM; thioester 3-C)	
	189	1160	CC(=O)N[C@H]1CSC(=O)[C@H](Cc2ccccc2)NC(=O)[C@H](CC(C)C)NC(=O)[C@H](CO)NC(=O)CNC1=O (Ac-CGSLF; thioester 1-C)	
	1680	47300	CC(C)C[C@@H]1NC(=O)[C@H](CO)NC(=O)[C@H](CO)NC(=O)CCSC(=O)[C@H](Cc2ccccc2)N(C)C1=O ([Mpa]SSL[NMeF]; thioester 1-C)	

Second part, the molecule before the results:

Compound	IC50 [2] [nM]	IC50 [3] [nM]	IC50 [4] [nM]	also measured
CC1CCCN(C(C(=O)Nc2ccc3c(c2)OCCO3)c2ccccc2)C1 (stereo not given)	130			inhibition (Staphylococcus aureus): > 90%; IC50 [1]: 100 nM
O=C(Nc1ccc2c(c1)OCO2)C(c1ccccc1)N1CCCCC1 (stereo not given)	1260			
CCOC(=O)c1c(C)oc2cc(-c3cc(Br)c(O)c(Br)c3)ccc12		780		
CC[C@H](C)[C@@H]1NC(=O)[C@H](Cc2ccccc2)NC(=O)[C@H](CC(=O)O)NC(=O)[C@@H](NC(=O)[C@@H](NC(=O)[C@H](CO)NC(=O)[C@@H](N)Cc2ccc(O)cc2)[C@@H](C)O)CSC(=O)[C@H](CCSC)NC1=O (H-YSTCDFIM; thioester 4-C)	3		25	EC50 [5]: 26000 nM; EC50 [6]: 28 nM
CCc1oc2ccccc2c1C(=O)c1cc(Br)c(O)c(Br)c1 [BENZBROMARONE]		130		
CC1CCN(C(C(=O)Nc2ccc3c(c2)OCO3)c2ccccc2)CC1 (stereo not given)	980			
CC(C)c1ccc(S(=O)(=O)c2nnn3c2nc(O)c2ccccc23)cc1 [SAVIRIN]		< 1000		
CC(C)c1ccc(NC(=O)C(c2ccc3c(c2)OCO3)N2CCCCC2)cc1 (stereo not given)	250			
CC(=O)N[C@H]1CSC(=O)[C@H](Cc2ccccc2)NC(=O)[C@H](CC(C)C)NC(=O)CCCCNC1=O (Ac-C[Ava]LF; thioester 1-C)		1140	50700	
O=C(Nc1ccc2c(c1)OCO2)C(c1ccccc1)N1CCC(Cc2ccccc2)CC1 (stereo not given)	980			
CCCCc1oc2ccccc2c1C(=O)c1ccc(O)cc1		540		
CCCCCCCc1cc(O)c2ccccc2[n+]1[O-]		1300		
COc1ccc(NC(=O)C(c2cc3c(cc2[N+](=O)[O-])OCO3)N2CC(C)CC(C)C2)cc1 (stereo not given)	1310			
CC[C@H](C)[C@@H]1NC(=O)[C@H](Cc2ccccc2)NC(=O)[C@H](C)NC(=O)[C@@H](NC(=O)[C@@H](NC(=O)[C@H](CO)NC(=O)[C@@H](N)Cc2ccc(O)cc2)[C@@H](C)O)CSC(=O)[C@H](CCSC)NC1=O (H-YSTCAFIM; thioester 4-C)	0.3	5	8	IC50 [7]: 3 nM
CC1CCN(C(C(=O)Nc2ccc(C(C)C)cc2)c2ccc3c(c2)OCO3)CC1 (stereo not given)	720			
CCc1oc2ccccc2c1C(=O)c1ccc(O)cc1 [BENZARONE]		1290		
CC[C@@H]1NC(=O)[C@@H](NC(=O)[C@@H](NC(=O)[C@H](CO)NC(=O)[C@@H](N)Cc2ccc(O)cc2)[C@@H](C)O)CSC(=O)[C@H](CCSC)NC(=O)[C@H]([C@@H](C)CC)NC(=O)[C@H](Cc2ccccc2)NC1=O (H-YSTC[Abu]FIM; thioester 4-C)		137	2.8	
CC1CCCN(C(C(=O)Nc2ccc3c(c2)OCO3)c2ccccc2)C1 (stereo not given)	160			

Source: ChEMBL document CHEMBL2331293, “Attenuating Staphylococcus aureus virulence gene regulation: a medicinal chemistry perspective” (J Med Chem, 2013)
